Measured values as given in article PMC7760690, “Neuroprotective Metabolites from Vietnamese Marine Derived Fungi of Aspergillus and Penicillium Genera” (Marine Drugs, 2020).

Assays:
[1] = test system: 6-OHDA-treated Neuro-2a cells; test: ROS level in 6-OHDA-treated cells (H2DCFDA); format: cell-based, murine
Method: (§1) The murine neuroblastoma cell line Neuro-2a was purchased from ATCC.
(§2) Neuro-2a cells were cultured in DMEM medium containing 10% fetal bovine serum (Biolot, St. Petersburg, Russia) and 1% penicillin/streptomycin (Biolot, St. Petersburg, Russia). Cells were incubated at 37 °C in a humidified atmosphere containing 5% (v/v) CO2 [71].
(§3) The cells (1 × 10^4 cells/well of a 96-well plate) were incubated with compound solutions (10 µM) during 1 h. Then, 6-OHDA/PQ/rotenone were added to cell suspension to resulting concentration of 50 µM, 500 µM and 10 µM respectively for incubation during 1 h. Cells incubated without neurotoxins and compounds and with neurotoxins alone were used as positive and negative controls, respectively. The 20 µL of 2,7-dichlorodihydrofluorescein diacetate solution (H2DCFDA, Molecular Probes, Eugene, OR, USA) was added to each well (10 µM, final concentration) and the plate was incubated for an additional 10 min at 37 °C. The intensity of dichlorofluorescein fluorescence was measured with PHERAstar FS plate reader (BMG Labtech, Ortenberg, Germany) at λex = 485 nm and λem = 518 nm. The data were processed by MARS Data Analysis v. 3.01R2 (BMG Labtech, Germany). The results were presented as the percent of positive control data.

MTT cytotoxicity assay = format: cell-based, murine; details: mouse, Neuro-2a neuroblastoma cells; Neuro-2a cells, MTT
Method: as §1, §2
The in vitro cytotoxicity of the individual substances was evaluated using an MTT (3-(4,5-dimethylthiazol-2-yl)-2,5-diphenyltetrazolium bromide) assay, which was performed according to the manufacturer’s instructions (Sigma-Aldrich, USA). Absorbance of the converted formazan was measured using a Multiskan FC plate photometer (Thermo Scientific, Waltham, MA, USA) at λ = 570 nm. The results were presented as percent of control data, and concentration of cell viability inhibition on 50% (IC50) was calculated.

[2] = design: method as in doi:10.1007/BF01922472, doi:10.1016/j.tet.2016.09.008; details: cited from earlier work
[3] = test system: MCF-7, HepG-2, NCI-H460 and SF-268; design: method as in PMID 18444265, PMID 28481313, PMID 27128202; details: four tumor cell lines and some others; cited from earlier work
[4] = test system: rotenone-treated Neuro-2a cells; test: ROS level in rotenone-treated cells (H2DCFDA); format: cell-based, murine
Method: as §1, §2, §3

[5] = design: method as in doi:10.1007/BF03175531; details: cited from earlier work
[6] = test system: Escherichia coli and Bacillus subtilis; design: method as in doi:10.1007/s10600-016-1745-x; details: cited from earlier work
[7] = DPPH radical scavenger assay; details: for EC50 / DPPH Radical Scavenging 100 µM % of MeOH: 30 min; for EC50: MeOH, read-out: DPPH Radical Scavenging EC50; for DPPH Radical Scavenging 100 µM % of MeOH: compound 100 µM, absorbance 520 nm
Method: The DPPH radical scavenging activities of the compounds were tested as described.
The compounds were dissolved in MeOH, and the solutions (120 µL) were dispensed into wells of a 96-well microplate. In all, 30 µL of the DPPH (Sigma-Aldrich, Steinheim, Germany) solution in MeOH (7.5 × 10^−3 M) was added to each well. The concentrations of the test compounds in the mixtures were 10 and 100 µM. The mixtures were shaken and left to stand for 30 min, and the absorbance of the resulting solutions was measured at 520 nm with a microplate reader MultiscanFC (ThermoScientific, Waltham, MA, USA). The concentration scavenging 50% of the DPPH radical (EC50) was calculated for each investigated compound.

[8] = test system: PQ-treated Neuro-2a cells; test: ROS level in PQ-treated cells (H2DCFDA); format: cell-based, murine
Method: as §1, §2
as §3, with “The cells (1 × 10^4 cells/well of a 96-well plate) were incubated with compound solutions (10 µM) during 1 h.” left out

[9] = test system: Neuro-2a cells treated with 6-OHDA; test: 6-OHDA-induced PD cell model, cell viability (MTT); format: cell-based, murine; details: compounds 6-12 at 1 µM; 6-OHDA 50 µM
Method: as §1, §2
(§4) The neuroblastoma Neuro-2a line cells (1 × 10^4 cells/well) were treated with the test compounds at concentrations of 1 and/or 10 µM for 1 h, and then the neurotoxins were added to the neuroblastoma cell suspensions. Rotenone (Sigma-Aldrich, USA) was used at the concentration of 10 µM. Paraquat (Sigma-Aldrich, USA) was used at 500 µM. 6-Hydroxydopamine (Sigma-Aldrich, USA) was used at 50 µM. Cells incubated without neurotoxins and the test compounds and cells incubated with neurotoxins only were used as positive and negative controls, respectively. After 24 h of incubation, the cell viabilities were measured using the MTT method. The results are presented as the percent of positive control data.

[10] = no exact data published; cited from earlier work
[11] = test system: PQ-treated Neuro-2a cells; test: Paraquat-induced PD cell model, cell viability (MTT); format: cell-based, murine
Method: as §1, §2, §4

[12] = test system: rotenone-treated Neuro-2a cells; test: Rotenone-induced PD cell model, cell viability (MTT); format: cell-based, murine
Method: as §1, §2, §4

Nrf2-ARE pathway = test system: Nrf2-ARE pathway; design: method as in PMID 27450949; details: cited from earlier work
[13] = compounds 1-5, compound 10 µM 1 h, 6-OHDA 50 µM 1 h
[14] = compounds 1-5, compound 10 µM 1 h, rotenone 10 µM 1 h
[15] = compounds 1-5, compound 10 µM 1 h, PQ 500 µM 1 h

| Compound | IC50 (MTT cytotoxicity assay) | EC50 [7] | DPPH Radical Scavenging 100 µM % of MeOH [7] | other results |
| --- | --- | --- | --- | --- |
| O=C1C[C@H](O)[C@@H](O)c2cc(O)cc(O)c21 [Compound 1, (3S,4S)-4-hydroxyscytalone] | > 100 µM | > 100 µM | 83.4 ± 1.2 % of MeOH | influence on ROS level in 6-OHDA-treated cells [1, 13]: decreased a ROS level; phytotoxic activity [2]: phytotoxic; cytotoxicity against tumor cell lines [3]: no activity was shown; influence on ROS level in rotenone-treated cells [4, 14]: decreased a ROS level; antinematodal activity [5]: antinematodal agents; antimicrobial activity [6]: weak antimicrobial activity; influence on ROS level in PQ-treated cells [8, 15]: decreased a ROS level |
| C=CC(C)(C)c1[nH]c2ccccc2c1C1=C(OC)C(=O)C(c2cn(C(C)(C)C=C)c3ccccc23)=C(OC)C1=O [Compound 7, Asterriquinone A3] | > 100 µM | > 100 µM | 88.9 ± 1.6 % of MeOH | cytoprotective activity in 6-OHDA-induced PD cell model [9]: weak cytoprotective activity |
| COc1cc(O)cc2c1C(=O)c1c(O)cc(C)cc1C2=O [Compound 12, questin] | > 100 µM | > 100 µM | 87.7 ± 2.4 % of MeOH | DPPH-radical scavenging activity [10]: DPPH-radical scavenging activity has been reported; cytoprotective activity in 6-OHDA-induced PD cell model [9]: inactive; influence on ROS level in 6-OHDA-treated cells ([1]; compounds 6-12, 1 µM (method: 10 µM), 6-OHDA 50 µM): significant in vitro anti-ROS activity; influence on ROS level in rotenone-treated cells ([4]; compounds 6-12, 1 µM (method: 10 µM), rotenone 10 µM): significant in vitro anti-ROS activity; cytoprotective activity in PQ-induced PD cell model ([11]; compounds 6-12 at 1 µM, paraquat 500 µM): inactive; cytoprotective activity in rotenone-induced PD cell model ([12]; compounds 6-12 at 1 µM, rotenone 10 µM): moderate cytoprotective activity; radical scavenging activity in cell-free assay ([7]; DPPH, up to 100 µM): did not show any significant DPPH radical scavenging; influence on ROS level in PQ-treated cells ([8]; compounds 6-12, 1 µM (method: 10 µM), PQ 500 µM): significant in vitro anti-ROS activity |
| COc1c2c(c(OC)c(O)c1-c1c[nH]c3ccccc13)C1(O)c3ccccc3NC1O2 (centres unmarked) [Compound 6, 3-(1H-indol-3-yl)-1,4-dimethoxy-5a,6-dihydro-10bH-benzofuro [2,3-b]indole-2,10b-diol] | > 100 µM | > 100 µM | 67.3 ± 3.9 % of MeOH | – |
| C[n+]1ccc(-c2cc[n+](C)cc2)cc1 [PQ, paraquat, reference compound] | – | – | – | decrease of Neuro-2a cell viability by neurotoxin ([11]; paraquat 500 µM alone, 24 h): 44%; increase of intracellular ROS level by neurotoxin ([8]; PQ 500 µM alone, 1 h): 48% |
| COC1=C(c2c[nH]c3ccccc23)C(=O)C(OC)=C(c2c[nH]c3c(CC=C(C)C)cccc23)C1=O [Compound 10, asterriquinone C2] | > 100 µM | > 100 µM | 91.3 ± 1.1 % of MeOH | – |
| O=C1C[C@H](O)[C@@H](O)c2cccc(O)c21 [Compound 2, (3S,4S)-4-hydroxy-6-dehydroxyscytalone] | > 100 µM | > 100 µM | 84.8 ± 3.2 % of MeOH | influence on ROS level in 6-OHDA-treated cells [1, 13]: decreased a ROS level; phytotoxic activity [2]: phytotoxic; influence on ROS level in rotenone-treated cells [4, 14]: decreased a ROS level; antinematodal activity [5]: antinematodal agents; influence on ROS level in PQ-treated cells [8, 15]: decreased a ROS level |
| NCCc1cc(O)c(O)cc1O [Compound 6-OHDA, 6-hydroxydopamine, reference compound] | – | – | – | increase of intracellular ROS level by neurotoxin ([1]; 6-OHDA 50 µM alone, 1 h): 66% |
| C=C(C)[C@H]1Cc2c(ccc3c2O[C@@H]2COc4cc(OC)c(OC)cc4[C@@H]2C3=O)O1 [Rotenone, reference compound] | – | – | – | increase of intracellular ROS level by neurotoxin ([4]; rotenone 10 µM alone, 1 h): 79%; decrease of Neuro-2a cell viability by neurotoxin ([12]; rotenone 10 µM alone, 24 h): 48% |
| COC1=C(c2c[nH]c3ccccc23)C(=O)C(OC)=C(c2c[nH]c3ccccc23)C1=O [Compound 11, asterriquinone D] | > 100 µM | > 100 µM | 85.6 ± 1.3 % of MeOH | – |
| C=CC(C)(C)c1[nH]c2ccccc2c1C1=C(OC)C(=O)C(c2c[nH]c3ccccc23)=C(OC)C1=O [Compound 9, asterriquinone C1] | 42.3 ± 1.45 µM | > 100 µM | 82.4 ± 1.7 % of MeOH | – |
| C=CC(C)(C)c1[nH]c2ccccc2c1C1=C(OC)C(=O)C(c2c(C(C)(C)C=C)[nH]c3ccccc23)=C(OC)C1=O [Compound 8, asterriquinone B4] | 91.5 ± 1.87 µM | > 100 µM | 89.5 ± 0.9 % of MeOH | – |
| CC1CC(O)CC2(Cc3cc(O)cc(O)c3C(=O)O2)O1 (centres unmarked) [Compound 3, demethylcitreoviranol] | > 100 µM | > 100 µM | 91.2 ± 1.8 % of MeOH | inducing of the Nrf2-ARE pathway (Nrf2-ARE pathway): weak inducing of the Nrf2-ARE pathway; influence on ROS level in rotenone-treated cells [4, 14]: effective against ROS level enhancing; influence on ROS level in PQ-treated cells [8, 15]: effective against ROS level enhancing |
